Measurements reported in patent US6689609B1, “Enhancing germination of plant somatic embryos by priming” (Cellfor Inc., priority 1999, dated 2004).
Where two headings read alike, the source gives them in different places. Each block holds one molecule with its values, some of them ahead of it.

Columns and labels:
[1] = system: interior spruce somatic embryos; format: in vivo, Picea glauca (Moench) Voss x P. engelmannii Parry ex Engelm.; conditions: for % with hyperhydricity: in vivo
Excerpt: The second study assessed the effects adding various osmotica to nutripriming solutions on subsequent germination and development performance. Mature somatic embryos of interior spruce (Picea glauca (Moench) Voss x P. engelmannii Parry ex Engelm.) genotype 23-2672 were desiccated with the HRHT treatment, and then divided into 10 groups of 160 somatic embryos per group. One group was not primed and served as the HRHT control treatment for this study. […] The nutripriming solutions and embryos were placed into 250-ml Kimax® baffled flasks. The nutripriming duration was 72 hrs at temperatures ranging between 20-23° C., and a 24-hr photoperiod of 30 μmol m^−2s^−1 photosynthetic photon flux.
At the completion of the nutripriming step, the nutriprimed embryos from each treatment were divided into 8 groups of 20 embryos and sown by hand onto vermiculite media in Sigma polycarbonate boxes. The liquid media in these germination boxes were either 3% w/v sucrose m24GMD or m24GMD without sucrose. The experiment design was a random complete block design for each media type. Each nutripriming treatment had 4 replicates of 20 embryos in each germination media type. The germination boxes were placed in a germination room and grown for two weeks under 50-70 μmol m^−2s^−1 photosynthetic photon flux of 16-hour photoperiod at an air temperature of 23° C. The germinants were then harvested and assessed for germination rates, hyperhydricity rates, shoot and root length. Germination was defined as germinants having a root longer than 2 mm, and elongated hypercotyl. Hyperhydricity was defined by the thickening of hypercotyl and watery appearance of the germinants, whether germinated or not germinated.

[2] = system: interior spruce somatic embryos; assay: Ascorbic acid in nutripriming solution and germination media: germination and growth of interior spruce genotype 4-2809 somatic embryos; format: in vivo, Picea glauca (Moench) Voss x P. engelmannii Parry ex Engelm.
Description: Mature somatic embryos of interior spruce (Picea glauca (Moench) Voss x P. engelmannii Parry ex […].) genotype 4-2809 were desiccated with the HRHT treatment, and then nutriprimed in 3% w/v sucrose m24GMD solutions for 3 days as previously described. The nutripriming solutions were formulated with one of the following three ascorbic acid treatments; 0, 10 uM, 100 uM. The nutriprimed somatic embryos were then sown into germination boxes containing 150 ml vermiculite plus 120 ml of 3% w/v sucrose m24GMD liquid medium. […] Nutriprimed embryos from each ascorbic acid nutripriming treatment were then sown into triplicate boxes of each ascorbic acid-amended germination medium. After sowing, the germination boxes were sealed twice with ParafilmTM. Embryos were germinated and grown for two weeks under 50-70 μmol m^-2s^-1 photosynthetic photon flux of 16-hour photoperiod at an air temperature of 22° C. Then, the germinants were harvested, and measured.

[3] = germination media m24GMD (without sucrose), osmoticant levels as E220
[4] = germination media m24GMD plus 3% sucrose, osmoticant in m24GMD priming solution (w/v): 1% betaine, 1.65% fructose, glucose, mannitol, sorbitol, 3% lactose, maltose, sucrose, 10% PEG 4000, 72 hrs
[5] = germination media m24GMD plus 3% sucrose, osmoticant levels as E220
[6] = AA 0 μM in germination media, 10 μM in priming solution
[7] = AA 0 μM in germination media, 100 μM in priming solution
[8] = AA 1 μM in germination media, 0 μM in priming solution
[9] = AA 1 μM in germination media, 10 μM in priming solution
[10] = AA 1 μM in germination media, 100 μM in priming solution
[11] = AA 10 μM in germination media, 0 μM in priming solution
[12] = AA 10 μM in germination media, 10 μM in priming solution
[13] = AA 10 μM in germination media, 100 μM in priming solution
[14] = AA 100 μM in germination media, 0 μM in priming solution
[15] = AA 100 μM in germination media, 10 μM in priming solution
[16] = AA 100 μM in germination media, 100 μM in priming solution
[17] = AA 1000 μM in germination media, 0 μM in priming solution
[18] = AA 1000 μM in germination media, 10 μM in priming solution
[19] = AA 1000 μM in germination media, 100 μM in priming solution

Molecule: O=C1O[C@H]([C@@H](O)CO)C(O)=C1O [AA, Ascorbic acid]
- Germination % [2, 6]: 100.0 ± 0.0%
- Root length [2, 6]: 2.59 ± 0.26 cm
- Rooting % [2, 6]: 86.7 ± 3.3%
- Shoot length [2, 6]: 1.86 ± 0.10 cm
- Germination % [2, 7]: 100.0 ± 0.0%
- Root length [2, 7]: 3.56 ± 0.37 cm
- Rooting % [2, 7]: 96.7 ± 3.3%
- Shoot length [2, 7]: 2.07 ± 0.11 cm
- Germination % [2, 8]: 96.7 ± 3.3%
- Root length [2, 8]: 1.90 ± 0.23 cm
- Rooting % [2, 8]: 85.8 ± 3.0%
- Shoot length [2, 8]: 1.68 ± 0.10 cm
- Germination % [2, 9]: 100.0 ± 0.0%
- Root length [2, 9]: 2.07 ± 0.22 cm
- Rooting % [2, 9]: 86.7 ± 8.8%
- Shoot length [2, 9]: 1.83 ± 0.11 cm
- Germination % [2, 10]: 100.0 ± 0.0%
- Rooting % [2, 10]: 90.0 ± 0.0%
- Shoot length [2, 10]: 1.79 ± 0.09 cm
- Germination % [2, 11]: 97.5 ± 2.5%
- Root length [2, 11]: 2.46 ± 0.30 cm
- Rooting % [2, 11]: 87.5 ± 6.3%
- Shoot length [2, 11]: 1.84 ± 0.09 cm
- Germination % [2, 12]: 96.7 ± 3.3%
- Root length [2, 12]: 2.82 ± 0.36 cm
- Rooting % [2, 12]: 86.7 ± 3.3%
- Shoot length [2, 12]: 1.97 ± 0.19 cm
- Germination % [2, 13]: 100.0 ± 0.0%
- Root length [2, 13]: 3.24 ± 0.32 cm
- Rooting % [2, 13]: 96.7 ± 3.3%
- Shoot length [2, 13]: 2.33 ± 0.11 cm
- Germination % [2, 14]: 93.3 ± 3.3%
- Root length [2, 14]: 2.50 ± 0.33 cm
- Rooting % [2, 14]: 63.3 ± 8.8%
- Shoot length [2, 14]: 1.81 ± 0.09 cm
- Germination % [2, 15]: 100.0 ± 0.0%
- Root length [2, 15]: 3.18 ± 0.42 cm
- Rooting % [2, 15]: 78.2%
- Shoot length [2, 15]: 2.02 ± 0.11 cm
- Germination % [2, 16]: 100.0 ± 0.0%
- Root length [2, 16]: 3.61 ± 0.39 cm
- Rooting % [2, 16]: 73.0%
- Shoot length [2, 16]: 2.12 ± 0.11 cm
- Germination % [2, 17]: 100.0 ± 0.0%
- Root length [2, 17]: 2.11 ± 0.25 cm
- Rooting % [2, 17]: 90.0 ± 0.0%
- Shoot length [2, 17]: 1.79 ± 0.14 cm
- Germination % [2, 18]: 100.0 ± 0.0%
- Root length [2, 18]: 2.55 ± 0.20 cm
- Rooting % [2, 18]: 95.0 ± 5.0%
- Shoot length [2, 18]: 2.00 ± 0.09 cm
- Germination % [2, 19]: 100.0 ± 0.0%
- Root length [2, 19]: 2.19 ± 0.26 cm
- Rooting % [2, 19]: 90.0 ± 5.8%
- Shoot length [2, 19]: 1.75 ± 0.15 cm

Molecule: polyethylene glycol (PEG) 4000 [PEG 4000]
- % with hyperhydricity [1]: 97.5 ± 4.3%

Molecule: OC[C@H]1O[C@@H](O[C@H]2[C@H](O)[C@@H](O)C(O)O[C@@H]2CO)[C@H](O)[C@@H](O)[C@H]1O (stereo partly shown) [lactose]
- Germination % [1, 3]: 27.6 ± 24.3%
- Root length [1, 3]: 0.3 ± 0.1 mm
- Shoot length [1, 3]: 11.5 ± 0.2 mm
- Germination % [1, 4]: 100%
- Root length [1, 5]: 12.4 ± 0.8 mm
- Shoot length [1, 5]: 15.5 ± 0.3 mm
- % with hyperhydricity [1]: 100%

Molecule: C[N+](C)(C)CC(=O)O [betaine]
- Germination % [1, 3]: 45.0 ± 26.3%
- Root length [1, 3]: 0.4 ± 0.2 mm
- Shoot length [1, 3]: 11.2 ± 0.3 mm
- Germination % [1, 4]: 100%
- Root length [1, 5]: 12.2 ± 0.8 mm
- Shoot length [1, 5]: 14.2 ± 0.3 mm
- % with hyperhydricity [1]: 76.3 ± 19.1%

Now from value to molecule, other results behind:

- % with hyperhydricity [1]: 100%
Molecule: OC[C@H]1O[C@H](O[C@H]2[C@H](O)[C@@H](O)[C@H](O)O[C@@H]2CO)[C@H](O)[C@@H](O)[C@@H]1O [maltose]
- Germination % [1, 3]: 0%
- Root length [1, 3]: 0.8 ± 0.1 mm
- Shoot length [1, 3]: 11.2 ± 0.3 mm
- Germination % [1, 4]: 98.8%
- Root length [1, 5]: 11.5 ± 0.8 mm
- Shoot length [1, 5]: 14.2 ± 0.3 mm

- % with hyperhydricity [1]: 93.5 ± 5.0%
Molecule: OC[C@@H](O)[C@@H](O)[C@H](O)[C@H](O)CO [mannitol]
- Germination % [1, 3]: 24.6 ± 12.7%
- Root length [1, 3]: 0.3 ± 0.1 mm
- Shoot length [1, 3]: 10.0 ± 0.3 mm
- Germination % [1, 4]: 100%
- Root length [1, 5]: 12.0 ± 0.5 mm
- Shoot length [1, 5]: 13.6 ± 0.3 mm

- % with hyperhydricity [1]: 92.6 ± 6.0%
Molecule: OC[C@@H](O)[C@@H](O)[C@H](O)[C@@H](O)CO [sorbitol]
- Germination % [1, 3]: 5.0 ± 5.0%
- Root length [1, 3]: 0.4 ± 0.1 mm
- Shoot length [1, 3]: 10.7 ± 0.3 mm
- Germination % [1, 4]: 100%
- Root length [1, 5]: 15.5 ± 1.0 mm
- Shoot length [1, 5]: 14.5 ± 0.4 mm
